Earlier results in PMC7482441 (Pharmacological Research, 2020).

Columns and labels:
mdx mice = conditions: cited from earlier work
BIO 14.6 hamster = conditions: cited from earlier work

Compound: CC(C)c1ccc(C(=O)NC(=N)N)cc1S(C)(=O)=O [Cariporide]
- creatine kinase (CK) levels, inflammation, fibrosis and histological skeletal muscle damage (mdx mice): markedly reduced
- intracellular Ca2+ levels and Na+ influx (BIO 14.6 hamster): normalised
